Laboratory results from patent US20230271965A1, “BICYCLIC HETEROARENES AND METHODS OF THEIR USE” (Kineta, Inc., priority 2020, published 2023).
pIC50: −log10 of the molar value. Where two headings read alike, the source gives them in different places.

Columns and labels:
[1] = molecular target: T1, full-length human PIKFYVE (GST-PIKFYVE) (Homo sapiens, UniProt Q9Y2I7, L932S/Q1183K/Q995L/S1033A/S696N/T998S); assay: PIKfyve biochemical assay (ADP-Glo Kinase assay, Carna Biosciences)
T1 construct: A full-length human PIKFYVE [1-2098 (end) amino acids; purchased Carna Biosciences; host or cells: baculovirus expression system
Procedure: PIKfyve Biochemical Assay. The biochemical PIKFyve inhibition assays were run by Carna Biosciences according to proprietary methodology based on the Promega ADP-Glo™ Kinase assay. […] GST-PIKFYVE was purified by using glutathione sepharose chromatography and used in an ADP-Glo™ Kinase assay (Promega). Reactions were set up by adding the test compound solution, substrate solution, ATP solution and kinase solution, each at 4×final concentrations. Reactions were prepared with assay buffer (50 mM MOPS, 1 mM DTT, pH7.2), mixed, and incubated in black 384 well polystyrene plates for 1 hour at room temperature. ADP-Glo™ reagent was then added for 40 minutes, followed by kinase detection reagent for an additional 40 minutes. The kinase activity was evaluated by detecting relative light units on a luminescence plate reader. Samples were run in duplicate from 10 μM to 3 nM. […] IC50 values were calculated from concentration vs % inhibition curves by fitting to a four-parameter logistic curve.
The biochemical PIKFyve inhibition assays were run by Carna Biosciences according to proprietary methodology based on the Promega ADP-Glo™ Kinase assay. […] GST-PIKFYVE was purified by using glutathione sepharose chromatography and used in an ADP-Glo™ Kinase assay (Promega).
Reactions were set up by adding the test compound solution, substrate solution, ATP solution and kinase solution, each at 4×final concentrations. Reactions were prepared with assay buffer (50 mM MOPS, 1 mM DTT, pH7.2), mixed, and incubated in black 384 well polystyrene plates for 1 hour at room temperature. ADP-Glo™ reagent was then added for 40 minutes, followed by kinase detection reagent for an additional 40 minutes. The kinase activity was evaluated by detecting relative light units on a luminescence plate reader. Samples were run in duplicate from 10 uM to 3 nM. […] IC50 values were calculated from concentration vs % inhibition curves by fitting to a four-parameter logistic curve.

[2] = system: PIKFYVE TDP-43 yeast strain; assay: Propidium iodide viability assay, PIKFYVE TDP-43 yeast strain; assay type: cell-based; conditions: Saccharomyces cerevisiae; reduction in PI-positive cells, 24 hours, values plotted in FIG. 7
From the text: Generation of TDP-43 yeast model expressing human PIKfyve. Human PIKFYVE (“entry clone”) was cloned into pAG416GPDccdB (“destination vector”) according to standard Gateway cloning protocols (Invitrogen, Life Technologies). The resulting pAG416GPD-PIKFYVE plasmids were amplified in E. coli and plasmid identity confirmed by restriction digest and Sanger sequencing. Lithium acetate/polyethylene glycol-based transformation was used to introduce the above PIKFYVE plasmid into a BY4741 yeast strain auxotrophic for the ura3 gene and deleted for two transcription factors that regulate the xenobiotic efflux pumps, a major efflux pump, and FAB1, the yeast ortholog of PIKFYVE (MATa, snq2::KILeu2; pdr3::KIura3; pdr1::NATMX; fab1::G418^R, his3; leu2; ura3; met15; LYS2+) (FIG. 2).
Transformed yeast were plated on solid agar plates with complete synthetic media lacking uracil (CSM-ura) and containing 2% glucose. Individual colonies harboring the control or PIKFYVE TDP-43 plasmids were recovered. A plasmid containing wild-type TDP-43 under the transcriptional control of the GAL1 promoter and containing the hygromycin-resistance gene as a selectable marker was transformed into the fab1::G418^R pAG416GPD-PIKFYVE yeast strain (FIG. 1). Transformed yeast were plated on CSM-ura containing 2% glucose and […] after overnight recovery in media lacking antibiotic. Multiple independent isolates were further evaluated for cytotoxicity and TDP-43 expression levels.
Viability Assay. A control yeast strain with the wild-type yeast FAB1 gene and TDP-43 (“FAB1 TDP-43”, carries empty pAG416 plasmid), and the “PIKFYVE TDP-43” yeast strain, were assessed for toxicity using a propidium iodide viability assay. Both yeast strains were transferred from solid CSM-ura/2% glucose agar plates into 3 mL of liquid CSM-ura/2% glucose media for 6-8 hours at 30° C. with aeration. Yeast cultures were then diluted to an optical density at 600 nm wavelength (OD600) of 0.005 in 3 mL of CSM-ura/2% raffinose and grown overnight at 30° C. with aeration to an OD600 of 0.3-0.8. Log-phase overnight cultures were diluted to OD600 of 0.005 in CSM-ura containing either 2% raffinose or galactose and 150 μL dispensed into each well of a flat bottom 96-well plates. Compounds formulated in 100% dimethyl sulfoxide (DMSO) were serially diluted in DMSO and 1.5 μL diluted compound transferred to the 96-well plates using a multichannel pipet. Wells containing DMSO alone were also evaluated as controls for compound effects. Tested concentrations ranged from 15 μM to […]. Cultures were immediately mixed to ensure compound distribution and covered plates incubated at 30° C. for 24 hours in a stationary, humified incubator.
Upon the completion of incubation, cultures were assayed for viability using propidium iodide (PI) to stain for dead/dying cells. A working solution of PI was made where, for each plate, 1 μL of 10 mM PI was added to 10 mL of CSM-ura (raffinose or galactose). The final PI solution (50 μL/well) was dispensed into each well of a new round bottom 96-well plate. The overnight 96-well assay plate was then mixed with a multichannel pipet and 50 μL transferred to the PI-containing plate. This plate was then incubated for 30 minutes at 30° C. in the dark. A benchtop flow cytometer (Miltenyi MACSquant) was then used to assess red fluorescence ([…]), forward scatter, and side scatter (with following settings: gentle mix, high flow rate, fast measurement, 10,000 events). Intensity histograms were then gated for “PI-positive” or “PI-negative” using the raffinose and galactose cultures treated with DMSO as controls. The DMSO controls for raffinose or galactose-containing cultures were used to determine the window of increased cell death and this difference set to 100. All compounds were similarly gated and then compared to this maximal window to establish the percent reduction in PI-positive cells.

[3] = molecular target: T2, PIKfyve (PIKFYVE-NanoLuc fusion in HEK293 cells) (Homo sapiens, UniProt Q9Y2I7); assay: NanoBRET TE Intracellular Kinase Assay, K-8 (Promega) cell-based assay; conditions: 2 hours, read-out: hPIKfyve BRET IC50
T2 construct: containing a full-length PIKfyve according to manufacturer's specifications; host or cells: HEK293
Procedure: NanoBRET™ TE Intracellular Kinase Assay, K-8 (Promega) Cell-Based Assay. Intracellular inhibition of PIKfyve was assayed using Promega's NanoBRET™ TE Intracellular Kinase Assay, K-8 according to manufacturer's instructions. A dilution series of test compounds was added for 2 hours to HEK293 cells transfected for a minimum of 20 hours with PIKFYVE-NanoLuc® Fusion Vector (Promega) containing a full-length PIKfyve according to manufacturer's specifications in a 96-well plate. Kinase activity was detected by addition of a NanoBRET™ tracer reagent, which was a proprietary PIKfyve inhibitor appended to a fluorescent probe (BRET, bioluminescence resonance energy transfer). Test compounds were tested at concentrations of 10, 3, 1, 0.3, 0.1, 0.03, 0.01, 0.003 μM. BRET signals were measured by a GloMax® Discover Multimode Microplate Reader (Promega) using 0.3 sec/well integration time, 450BP donor filter and 600LP acceptor filters. Active test compounds that bound PIKfyve and displaced the tracer reduced BRET signal. IC50 values were then calculated by fitting the data to the normalized BRET ratio.

[4] = ADP-Glo with full-length PIKfyve, read-out: PIKfyve IC50
[5] = values plotted in FIG. 7, read-out: PIKFYVE Biochemistry (IC50)
[6] = ADP-Glo, full-length human PIKFYVE, read-out: hPIKfyve IC50

T1 sequence (Q9Y2I7 whole entry S696N/L932S/Q995L/T998S/S1033A/Q1183K): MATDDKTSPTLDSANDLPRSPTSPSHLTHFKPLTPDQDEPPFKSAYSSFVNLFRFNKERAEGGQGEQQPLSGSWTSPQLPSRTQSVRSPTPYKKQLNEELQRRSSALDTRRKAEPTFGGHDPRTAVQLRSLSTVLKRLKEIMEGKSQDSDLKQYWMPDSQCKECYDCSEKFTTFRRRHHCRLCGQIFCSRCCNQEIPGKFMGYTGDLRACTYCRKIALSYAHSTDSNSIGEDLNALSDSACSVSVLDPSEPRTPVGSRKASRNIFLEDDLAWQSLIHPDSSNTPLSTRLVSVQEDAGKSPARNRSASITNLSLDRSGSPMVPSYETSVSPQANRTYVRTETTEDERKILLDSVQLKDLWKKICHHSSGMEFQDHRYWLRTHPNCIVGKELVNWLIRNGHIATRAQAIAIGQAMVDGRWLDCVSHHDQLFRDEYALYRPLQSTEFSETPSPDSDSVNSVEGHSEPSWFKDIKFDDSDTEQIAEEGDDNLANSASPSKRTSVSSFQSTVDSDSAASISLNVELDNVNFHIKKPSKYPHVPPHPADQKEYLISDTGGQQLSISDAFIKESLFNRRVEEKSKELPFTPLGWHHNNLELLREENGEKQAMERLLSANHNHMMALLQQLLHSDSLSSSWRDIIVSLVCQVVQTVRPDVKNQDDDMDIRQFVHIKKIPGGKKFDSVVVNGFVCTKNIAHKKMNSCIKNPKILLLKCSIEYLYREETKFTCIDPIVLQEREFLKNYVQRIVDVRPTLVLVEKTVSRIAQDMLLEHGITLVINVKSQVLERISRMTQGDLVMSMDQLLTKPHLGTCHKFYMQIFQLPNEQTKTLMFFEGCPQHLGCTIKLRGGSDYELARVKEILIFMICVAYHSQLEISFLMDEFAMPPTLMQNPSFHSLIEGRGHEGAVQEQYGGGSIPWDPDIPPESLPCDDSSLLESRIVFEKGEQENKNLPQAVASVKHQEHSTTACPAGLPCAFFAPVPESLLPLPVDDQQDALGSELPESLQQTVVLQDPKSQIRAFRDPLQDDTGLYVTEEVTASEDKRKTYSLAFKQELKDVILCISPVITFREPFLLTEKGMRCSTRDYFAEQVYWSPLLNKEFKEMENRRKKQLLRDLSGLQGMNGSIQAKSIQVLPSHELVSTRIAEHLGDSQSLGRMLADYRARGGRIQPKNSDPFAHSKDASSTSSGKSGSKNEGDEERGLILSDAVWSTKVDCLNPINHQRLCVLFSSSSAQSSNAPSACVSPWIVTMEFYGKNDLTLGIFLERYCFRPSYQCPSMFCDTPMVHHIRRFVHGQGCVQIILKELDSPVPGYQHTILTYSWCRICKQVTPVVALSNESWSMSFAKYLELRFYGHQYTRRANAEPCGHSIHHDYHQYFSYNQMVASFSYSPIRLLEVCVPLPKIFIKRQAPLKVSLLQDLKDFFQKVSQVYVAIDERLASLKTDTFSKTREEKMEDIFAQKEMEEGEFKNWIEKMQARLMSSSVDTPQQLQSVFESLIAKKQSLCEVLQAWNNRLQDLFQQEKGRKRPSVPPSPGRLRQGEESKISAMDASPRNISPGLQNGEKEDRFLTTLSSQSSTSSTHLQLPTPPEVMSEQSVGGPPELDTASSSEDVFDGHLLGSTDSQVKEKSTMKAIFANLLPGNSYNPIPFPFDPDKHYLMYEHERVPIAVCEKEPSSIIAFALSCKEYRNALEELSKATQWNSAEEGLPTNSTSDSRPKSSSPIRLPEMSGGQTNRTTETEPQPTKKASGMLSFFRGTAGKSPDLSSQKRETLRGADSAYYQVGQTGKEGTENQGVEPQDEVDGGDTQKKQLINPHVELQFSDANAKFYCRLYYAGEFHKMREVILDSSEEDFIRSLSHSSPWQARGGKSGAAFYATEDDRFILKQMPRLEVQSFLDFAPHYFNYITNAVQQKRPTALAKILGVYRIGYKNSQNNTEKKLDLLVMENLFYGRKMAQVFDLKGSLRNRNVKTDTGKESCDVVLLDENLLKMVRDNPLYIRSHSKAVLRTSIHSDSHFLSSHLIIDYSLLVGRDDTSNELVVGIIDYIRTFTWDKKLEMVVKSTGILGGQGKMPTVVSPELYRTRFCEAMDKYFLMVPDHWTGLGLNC
T2 sequence (Q9Y2I7 whole entry, the tested form may be a part): as the sequence (Q9Y2I7 whole entry S696N/L932S/Q995L/T998S/S1033A/Q1183K) above, with N696S, S932L, L995Q, S998T, A1033S, K1183Q counted along it

Row | SMILES | pIC50 [2] | pIC50 [1, 5] | other results
1 | Cc1cccc(/C=N/Nc2cc(N3CC4CC3CO4)n3nc(-c4ccncc4)cc3n2)c1 (centres unmarked) |  |  | pIC50 [1, 4]: 7.92
2 | CN(C)c1cc(N2CCOCC2)n2nc(-c3ccncc3)cc2n1 |  |  | pIC50 [1, 4]: 5.70
3 | Cc1cccc(/C=N/Nc2cc(N3CCOCC3)nc(OCCc3ccc(CN)cc3)n2)c1 | 5.95 | 8.15 | 
4 | c1ccc(C2CN(c3cc(N4CCOCC4)n4nc(-c5ccncc5)cc4n3)CCN2)cc1 (centres unmarked) | < 4.82 | 5.58 | 
5 | c1ccc(-c2cccc(-c3cc(N4CCOCC4)n4nc(-c5ccncc5)cc4n3)n2)cc1 | 6.64 | 7.85 | 
6 | c1cc(-c2cc3nc(C4CNC4)cc(N4CCOCC4)n3n2)ccn1 | < 4.82 | 5.10 | 
7 | c1cc(-c2nc3nc(N4CCOCC4)cc(N4CCOCC4)n3n2)ccn1 | < 4.82 | 5.04 | 
8 | O=c1ccc(-c2ccccc2)nn1-c1cc(N2CCOCC2)n2nc(-c3ccncc3)cc2n1 | < 4.82 | 6.53 | 
9 | c1ccc(Cc2ncccc2-c2cc(N3CCOCC3)n3nc(-c4ccncc4)cc3n2)cc1 | < 4.82 | 5.96 | 
10 | Oc1cc(-c2ccccc2)nn1-c1cc(N2CCOCC2)n2nc(-c3ccncc3)nc2n1 | 6.16 | 7.74 | 
11 | Oc1cc(C2CCOCC2)nn1-c1cc(N2CCOCC2)n2nc(-c3ccncc3)cc2n1 | 5.04 | 6.60 | 
12 | Cc1cccc(/C=N/Nc2nc(N3CCOCC3)c3ncccc3n2)c1 | 5.09 | 7.74 | 
13 | c1ccc(-c2ccnc(-c3cc(N4CCOCC4)nc(OCc4ccncc4)n3)n2)cc1 | 5.84 | 7.49 | 
14 | c1cc(COc2nc(N3CCOCC3)cc(-n3cc4c(n3)COCC4)n2)ccn1 | < 4.82 | 5.87 | 
15 | c1ccc(-c2nc(-c3cc(N4CCOCC4)nc(OCc4ccncc4)n3)no2)cc1 | < 4.82 |  | 
16 | O=c1c(CCOc2cccnc2)cc2ncncc2n1-c1ccccc1 | < 4.82 |  | 
17 | O=c1ccn(Cc2nc(N3CCOCC3)cc(-n3nccc3-c3ccccc3)n2)cc1 | < 4.82 |  | 
18 | c1ccc(-c2ccnn2-c2cc(N3CCOCC3)n3nc(-c4ccncc4)nc3n2)cc1 | < 4.82 | 6.12 | 

Row | SMILES | pIC50 [2] | pIC50 [1, 5] | other results
19 | Fc1cccc(-c2ccnn2-c2nc(N3CCOCC3)c3ncccc3n2)c1 | 5.24 |  | 
20 | c1ccc(N2CCc3c(OCCc4ccccn4)nc(N4CCOCC4)nc32)cc1 [Compound 1, 4-(7-phenyl-4-(2-(pyridin-2-yl)ethoxy)-6,7-dihydro-5H-pyrrolo[2,3-d]pyrimidin-2-yl)morpholine] |  |  | pIC50 [3]: 7.00 to 8.00
21 | c1ccc(N2CCc3c(OCc4cccnc4)nc(N4CCOCC4)nc32)cc1 [Compound 3] |  |  | pIC50 [3]: 7.00 to 8.00
22 | c1ccc(N2CCc3c(OCc4ccncc4)nc(N4CCOCC4)nc32)cc1 [Compound 4] |  |  | pIC50 [1, 6]: 7.00 to 8.00
23 | CN1CCCC(COc2nc(N3CCOCC3)nc3c2CCN3c2ccccc2)C1 (centres unmarked) [Compound 7] |  |  | pIC50 [1, 6]: 5.00 to 6.00
24 | c1ccc(N2CCc3c(OCC4CCCO4)nc(N4CCOCC4)nc32)cc1 (centres unmarked) [Compound 8] |  |  | pIC50 [1, 6]: 7.00 to 8.00
25 | c1cncc(N2CCc3c(COC4CCNC4)nc(N4CCOCC4)nc32)c1 (centres unmarked) [Compound 13, 4-(7-(pyridin-3-yl)-4-((pyrrolidin-3-yloxy)methyl)-5,6-dihydro-5H-pyrrolo[2,3-d]pyrimidin-2-yl)morpholine] |  |  | pIC50 [1, 6]: 6.00 to 7.00
26 | CC(C)(C)OC(=O)N1CCC(OCc2nc(N3CCOCC3)nc3c2CCN3c2cccnc2)C1 (centres unmarked) [Compound 15, tert-butyl 3-((2-morpholino-7-(pyridin-3-yl)-6,7-dihydro-5H-pyrrolo[2,3-d]pyrimidin-4-yl)methoxy)pyrrolidine-1-carboxylate] |  |  | pIC50 [1, 6]: 5.00 to 6.00
27 | c1ccc(N2CCc3c(Cc4ccccn4)nc(N4CCOCC4)nc32)cc1 [Compound 37, 4-(7-phenyl-4-(pyridin-2-ylmethyl)-6,7-dihydro-5H-pyrrolo[2,3-d]pyrimidin-2-yl)morpholine] |  |  | pIC50 [1, 6]: 7.00 to 8.00
28 | c1ccc(Cc2nc(N3CCOCC3)nc3c2CCN3c2cccnc2)nc1 [Compound 38] |  |  | pIC50 [1, 6]: 6.00 to 7.00
29 | c1ccc(N2CCc3c(NC4COC4)nc(N4CCOCC4)nc32)cc1 [Compound 48, 2-morpholino-N-(oxetan-3-yl)-7-phenyl-6,7-dihydro-5H-pyrrolo[2,3-d]pyrimidin-4-amine] |  |  | pIC50 [1, 6]: 5.00 to 6.00
30 | c1cncc(-c2nc(N3CCOCC3)nc3c2CCN3c2ccc3c(c2)OCCO3)c1 [Compound 64, 4-(7-(2,3-dihydrobenzo[b][1,4]dioxin-6-yl)-4-(pyridin-3-yl)-6,7-dihydro-5H-pyrrolo[2,3-d]pyrimidin-2-yl)morpholine] |  |  | pIC50 [1, 6]: 7.00 to 8.00
31 | Cc1cccc(/C=N/Nc2nc(N3CCOCC3)c3nc(-c4ccncc4)n(C)c3n2)c1 [drawing 252] |  |  | pIC50 [1, 4]: 8.31
32 | Cn1c(-c2ccncc2)nc2c(N3CCOCC3)ncnc21 [drawing 253] |  |  | pIC50 [1, 4]: 6.19
33 | Cn1c(-c2ccncc2)nc2c(N3CCOCC3)ncnc21 [drawing 265] | < 4.82 | 6.19 | 
34 | Cc1cccc(/C=N/Nc2nc(N3CCOCC3)c3nc(-c4ccncc4)n(C)c3n2)c1 [drawing 266] | 5.33 | 8.30 | 
35 | COc1nc(N2CCOCC2)nc2c1CCN2c1ccccc1 [drawing 274] | 5.37 | 7.07 | 
36 | c1ccc(N2CCc3c(OCc4cccnc4)nc(N4CCOCC4)nc32)cc1 [drawing 275] | 5.57 | 7.38 | 
